Read-outs that look alike come from different tables or passages of the source.

This note sets out measurements from patent US11524968B2, “Heterocyclic compound as a protein kinase inhibitor” (HK inno.N Corporation, priority 2017, dated 2022).

The target of the assay is JAK1 (Homo sapiens (Human), UniProt P23458). Put plainly: Analysis of JAK1 activity inhibition ability (ADP-Glo Kinase Assay). The assay is classed as biochemical. In short, it runs like this: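 ADP-Glo luminescence read-out of ADP production, with IC50 taken as the concentration halving JAK1 activity relative to control. Enzyme was incubated 40 min at 30 °C with compound, IRS-itide (40 ng/mL) and ATP (250 uM), concentrations as prepared in pH 7.5 Tris-HCl/MgCl2/BSA/DTT buffer.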
Background: ADP-Glo first removes unused ATP, then detects ADP through luciferase.

[1] abbreviates: JAK1 enzyme, ADP-Glo luminescence, ATP 250 uM, IRS-itide substrate, 30° C. 40 minutes, read-out: IC50.

JAK1, sequence (P23458 whole entry): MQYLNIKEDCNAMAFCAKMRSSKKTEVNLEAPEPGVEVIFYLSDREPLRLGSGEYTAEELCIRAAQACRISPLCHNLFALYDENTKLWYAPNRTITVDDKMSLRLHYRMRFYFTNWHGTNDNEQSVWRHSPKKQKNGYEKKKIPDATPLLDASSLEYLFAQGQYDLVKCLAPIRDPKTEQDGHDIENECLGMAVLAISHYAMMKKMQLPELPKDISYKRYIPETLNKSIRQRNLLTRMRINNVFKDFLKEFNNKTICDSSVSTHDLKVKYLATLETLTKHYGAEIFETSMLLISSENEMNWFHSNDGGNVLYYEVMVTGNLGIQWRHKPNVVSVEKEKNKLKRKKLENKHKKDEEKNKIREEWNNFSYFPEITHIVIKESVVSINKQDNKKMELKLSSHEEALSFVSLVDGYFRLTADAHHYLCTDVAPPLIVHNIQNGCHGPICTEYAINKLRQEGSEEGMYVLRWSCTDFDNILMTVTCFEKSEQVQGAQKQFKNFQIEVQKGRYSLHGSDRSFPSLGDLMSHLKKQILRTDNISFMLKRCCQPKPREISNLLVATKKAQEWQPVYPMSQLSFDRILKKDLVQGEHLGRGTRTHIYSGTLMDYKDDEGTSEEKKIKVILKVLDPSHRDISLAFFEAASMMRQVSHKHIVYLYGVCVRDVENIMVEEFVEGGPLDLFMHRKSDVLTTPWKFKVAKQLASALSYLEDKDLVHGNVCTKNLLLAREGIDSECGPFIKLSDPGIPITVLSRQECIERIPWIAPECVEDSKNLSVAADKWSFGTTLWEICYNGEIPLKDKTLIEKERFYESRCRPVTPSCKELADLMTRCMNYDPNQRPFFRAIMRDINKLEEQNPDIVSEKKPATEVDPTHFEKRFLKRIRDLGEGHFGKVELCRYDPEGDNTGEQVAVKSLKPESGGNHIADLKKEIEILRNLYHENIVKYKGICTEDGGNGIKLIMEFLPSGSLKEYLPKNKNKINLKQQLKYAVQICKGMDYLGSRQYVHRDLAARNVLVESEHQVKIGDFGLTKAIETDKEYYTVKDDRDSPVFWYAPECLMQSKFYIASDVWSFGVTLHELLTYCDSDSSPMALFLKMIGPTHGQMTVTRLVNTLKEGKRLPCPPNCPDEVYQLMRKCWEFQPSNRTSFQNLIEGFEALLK

As a reminder, the IC50 is the concentration that inhibits the measured activity by half. `CNC(=O)Cc1ccc(-c2cc(NC(=O)C3CC3)nc3[nH]ccc23)cc1` [Example 539, N-(4-(4-(2-(methylamino)-2-oxoethyl)phenyl)-1H-pyrrolo[2,3-b]pyridin-6-yl)cyclopropanecarboxamide]: the IC50 under setting [1] fell in the range of 20 to 200 nM.

Take `CN(C)C(=O)Cc1ccc(-c2cc(NC(=O)C3CC3)nc3[nH]ccc23)cc1` [Example 540, N-(4-(4-(2-(dimethylamino)-2-oxoethyl)phenyl)-1H-pyrrolo[2,3-b]pyridin-6-yl)cyclopropanecarboxamide]: the IC50 under setting [1] is 20 to 200 nM.

`CCNC(=O)Cc1ccc(-c2cc(NC(=O)C3CC3)nc3[nH]ccc23)cc1` [Example 541, N-(4-(4-(2-(ethylamino)-2-oxoethyl)phenyl)-1H-pyrrolo[2,3-b]pyridin-6-yl)cyclopropanecarboxamide]: the IC50 under setting [1] is 20 to 200 nM.

Consider `CS(=O)(=O)N1CCN(C(=O)Cc2ccc(-c3cc(NC(=O)C4CC4)nc4[nH]ccc34)cc2)CC1` [Example 542, N-(4-(4-(2-(4-(methylsulfonyl)piperazin-1-yl)-2-oxoethyl)phenyl)-1H-pyrrolo[2,3-b]pyridin-6-yl)cyclopropanecarboxamide], for which the IC50 under setting [1] was less than 20 nM.

In the case of `CC(=O)N1CCN(C(=O)Cc2ccc(-c3cc(NC(=O)C4CC4)nc4[nH]ccc34)cc2)CC1` [Example 543, N-(4-(4-(2-(4-acetylpiperazin-1-yl)-2-oxoethyl)phenyl)-1H-pyrrolo[2,3-b]pyridin-6-yl)cyclopropanecarboxamide], under setting [1], the IC50 is greater than 200 nM.

In the case of `O=C(Cc1ccc(-c2cc(NC(=O)C3CC3)nc3[nH]ccc23)cc1)Nc1ccon1` [Example 544, N-(4-(4-(2-(isoxazol-3-ylamino)-2-oxoethyl)phenyl)-1H-pyrrolo[2,3-b]pyridin-6-yl)cyclopropanecarboxamide], the IC50 under setting [1] fell in the range of 20 to 200 nM.

Consider `Cc1cc(CC(=O)N2CCS(=O)(=O)CC2)ccc1-c1cc(NC(=O)C2CC2)nc2[nH]ccc12` [Example 545, N-(4-(4-(2-(1,1-dioxidothiomorpholino)-2-oxoethyl)-2-methylphenyl)-1H-pyrrolo[2,3-b]pyridin-6-yl)cyclopropanecarboxamide], for which, under setting [1], the IC50 lay within 20 to 200 nM.

As for `O=C(Nc1cc(-c2ccc(CC(=O)N3CCC3)cc2)c2cc[nH]c2n1)C1CC1` [Example 546, N-(4-(4-(2-(azetidin-1-yl)-2-oxoethyl)phenyl)-1H-pyrrolo[2,3-b]pyridin-6-yl)cyclopropanecarboxamide], the IC50 under setting [1] was in the range of 20 to 200 nM.

Take `O=C(Nc1cc(-c2ccc(CC(=O)N3CCCC3)cc2)c2cc[nH]c2n1)C1CC1` [Example 547, N-(4-(4-(2-oxo-2-(pyrrolidin-1-yl)ethyl)phenyl)-1H-pyrrolo[2,3-b]pyridin-6-yl)cyclopropanecarboxamide]: the IC50 under setting [1] is 20 to 200 nM.

On to `N#CC1CCN(C(=O)Cc2ccc(-c3cc(NC(=O)C4CC4)nc4[nH]ccc34)cc2)CC1` [Example 548, N-(4-(4-(2-(4-cyanopiperidin-1-yl)-2-oxoethyl)phenyl)-1H-pyrrolo[2,3-b]pyridin-6-yl)cyclopropanecarboxamide], for which, under setting [1], the IC50 was 20 to 200 nM.

Compound `O=C1CCN(C(=O)Cc2ccc(-c3cc(NC(=O)C4CC4)nc4[nH]ccc34)cc2)CC1` [Example 549, N-(4-(4-(2-oxo-2-(4-oxopiperidin-1-yl)ethyl)phenyl)-1H-pyrrolo[2,3-b]pyridin-6-yl)cyclopropanecarboxamide] showed an IC50 of 20 to 200 nM.

As for `CN1CCN(C(=O)Cc2ccc(-c3cc(NC(=O)C4CC4)nc4[nH]ccc34)cc2)CC1` [Example 550, N-(4-(4-(2-(4-methylpiperazin-1-yl)-2-oxoethyl)phenyl)-1H-pyrrolo[2,3-b]pyridin-6-yl)cyclopropanecarboxamide], the IC50 under setting [1] is 20 to 200 nM.

In the case of `CCN1CCN(C(=O)Cc2ccc(-c3cc(NC(=O)C4CC4)nc4[nH]ccc34)cc2)CC1` [Example 551, N-(4-(4-(2-(4-ethylpiperazin-1-yl)-2-oxoethyl)phenyl)-1H-pyrrolo[2,3-b]pyridin-6-yl)cyclopropanecarboxamide], the IC50 under setting [1] was greater than 200 nM.

With `CC(C)N1CCN(C(=O)Cc2ccc(-c3cc(NC(=O)C4CC4)nc4[nH]ccc34)cc2)CC1` [Example 552, N-(4-(4-(2-(4-isopropylpiperazin-1-yl)-2-oxoethyl)phenyl)-1H-pyrrolo[2,3-b]pyridin-6-yl)cyclopropanecarboxamide], the IC50 under setting [1] is greater than 200 nM.

As to `N#CCCNC(=O)Cc1ccc(-c2cc(NC(=O)C3CC3)nc3[nH]ccc23)cc1` [Example 553, N-(4-(4-(2-((2-cyanoethyl)amino)-2-oxoethyl)phenyl)-1H-pyrrolo[2,3-b]pyridin-6-yl)cyclopropanecarboxamide], the IC50 under setting [1] was in the range of 20 to 200 nM.

Take `CC(C)(C)OC(=O)N1CCN(C(=O)Cc2ccc(-c3cc(NC(=O)C4CC4)nc4[nH]ccc34)cc2)CC1` [Example 554, tert-butyl 4-(2-(4-(6-(cyclopropanecarboxamido)-1H-pyrrolo[2,3-b]pyridin-4-yl)phenyl)acetyl)piperazine-1-carboxylate]: the IC50 under setting [1] fell in the range of 20 to 200 nM.

For `CC(C)(C)OC(=O)N1CCCC(NC(=O)Cc2ccc(-c3cc(NC(=O)C4CC4)nc4[nH]ccc34)cc2)C1` (centres unmarked) [Example 555, tert-butyl 3-(2-(4-(6-(cyclopropanecarboxamido)-1H-pyrrolo[2,3-b]pyridin-4-yl)phenyl)acetamido)piperidine-1-carboxylate], the IC50 under setting [1] was greater than 200 nM.

For `Cn1ccc(NC(=O)Cc2ccc(-c3cc(NC(=O)C4CC4)nc4[nH]ccc34)cc2)n1` [Example 556, N-(4-(4-(2-((1-methyl-1H-pyrazol-3-yl)amino)-2-oxoethyl)phenyl)-1H-pyrrolo[2,3-b]pyridin-6-yl)cyclopropanecarboxamide], the IC50 under setting [1] is 20 to 200 nM.

`O=C(Nc1cc(-c2ccc(CC(=O)N3CCCCC3)cc2)c2cc[nH]c2n1)C1CC1` [Example 557, N-(4-(4-(2-oxo-2-(piperidin-1-yl)ethyl)phenyl)-1H-pyrrolo[2,3-b]pyridin-6-yl)cyclopropanecarboxamide]: the IC50 under setting [1] was in the range of 20 to 200 nM.

For `O=C(Nc1cc(-c2ccc(CC(=O)N3CCNCC3)cc2)c2cc[nH]c2n1)C1CC1` [Example 558, N-(4-(4-(2-oxo-2-(piperazin-1-yl)ethyl)phenyl)-1H-pyrrolo[2,3-b]pyridin-6-yl)cyclopropanecarboxamide], under setting [1], the IC50 is greater than 200 nM.

On to `O=C(Nc1cc(-c2ccc(CC(=O)N3CCS(=O)(=O)CC3)c(F)c2)c2cc[nH]c2n1)C1CC1` [Example 559, N-(4-(4-(2-(1,1-dioxidothiomorpholino)-2-oxoethyl)-3-fluorophenyl)-1H-pyrrolo[2,3-b]pyridin-6-yl)cyclopropanecarboxamide], for which the IC50 under setting [1] is 20 to 200 nM.

On to `O=C(Nc1cc(-c2ccc(CC(=O)N3CCSCC3)cc2)c2cc[nH]c2n1)C1CC1` [Example 560, N-(4-(4-(2-oxo-2-thiomorpholinoethyl)phenyl)-1H-pyrrolo[2,3-b]pyridin-6-yl)cyclopropanecarboxamide], for which the IC50 under setting [1] was 20 to 200 nM.

As to `O=C(Nc1cc(-c2ccc(CC(=O)N3CCC(F)(F)CC3)cc2)c2cc[nH]c2n1)C1CC1` [Example 561, N-(4-(4-(2-(4,4-difluoropiperidin-1-yl)-2-oxoethyl)phenyl)-1H-pyrrolo[2,3-b]pyridin-6-yl)cyclopropanecarboxamide], the half-maximal inhibitory concentration (IC50) under setting [1] is 20 to 200 nM.
